# US9492471B2, “Methods of treating a disease or disorder associated with Bruton'S Tyrosine Kinase” (Celgene Avilomics Research, Inc., priority 2013, dated 2016)
# Read-outs that look alike come from different tables or passages of the source.
# How the values were obtained:
# Assay in all cases: HotSpot kinase profiling
# Format in all cases: biochemical
# [1] = molecular target: T1, LKB1 (Homo sapiens, UniProt Q15831)
# T1 construct: purchased Reaction Biology Corp
# T1 sequence (Q15831 1-433): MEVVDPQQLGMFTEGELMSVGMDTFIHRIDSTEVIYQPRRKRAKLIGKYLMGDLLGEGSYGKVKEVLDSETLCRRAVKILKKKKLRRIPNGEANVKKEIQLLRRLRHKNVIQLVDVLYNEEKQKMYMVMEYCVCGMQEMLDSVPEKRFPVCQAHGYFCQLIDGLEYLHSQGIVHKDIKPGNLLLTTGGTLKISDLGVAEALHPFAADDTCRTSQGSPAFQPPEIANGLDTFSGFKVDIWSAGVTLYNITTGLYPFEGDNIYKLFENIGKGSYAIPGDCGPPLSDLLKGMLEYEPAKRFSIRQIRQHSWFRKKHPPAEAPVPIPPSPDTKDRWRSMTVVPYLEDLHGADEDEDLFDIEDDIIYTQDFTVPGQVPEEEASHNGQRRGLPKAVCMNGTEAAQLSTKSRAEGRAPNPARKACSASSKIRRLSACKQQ
# T1 sequence (Q7RTN6 1-431 partner): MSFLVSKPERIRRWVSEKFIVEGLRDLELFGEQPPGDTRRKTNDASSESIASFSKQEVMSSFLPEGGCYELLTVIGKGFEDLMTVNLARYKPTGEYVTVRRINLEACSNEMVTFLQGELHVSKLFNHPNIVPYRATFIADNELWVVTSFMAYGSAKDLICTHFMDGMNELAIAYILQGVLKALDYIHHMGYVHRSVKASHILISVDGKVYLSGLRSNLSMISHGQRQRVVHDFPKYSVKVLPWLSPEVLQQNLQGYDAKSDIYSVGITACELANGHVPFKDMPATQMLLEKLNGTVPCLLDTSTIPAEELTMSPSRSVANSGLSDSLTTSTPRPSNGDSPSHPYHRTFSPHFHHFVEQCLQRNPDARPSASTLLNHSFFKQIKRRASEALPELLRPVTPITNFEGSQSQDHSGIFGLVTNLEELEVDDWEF
# T1 sequence (Q9Y376 1-341 partner): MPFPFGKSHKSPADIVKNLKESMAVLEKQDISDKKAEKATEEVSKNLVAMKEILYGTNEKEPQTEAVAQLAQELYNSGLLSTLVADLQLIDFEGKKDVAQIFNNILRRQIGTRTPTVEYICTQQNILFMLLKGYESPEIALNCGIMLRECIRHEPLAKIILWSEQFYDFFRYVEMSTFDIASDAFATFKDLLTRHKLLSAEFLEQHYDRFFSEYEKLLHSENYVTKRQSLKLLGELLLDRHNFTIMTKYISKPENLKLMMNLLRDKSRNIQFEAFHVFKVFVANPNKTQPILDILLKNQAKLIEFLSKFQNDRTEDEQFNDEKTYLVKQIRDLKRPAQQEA
# How it was run: (§1)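 P81 filtration radiometric readout; 2 h incubation at room temperature; 0.1% phosphoric acid wash; DMSO negative control; % inhibition, mean of replicate runs.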
# [2] = molecular target: T2, GLK/MAP4K3 (Homo sapiens, UniProt Q8IVH8)
# T2 construct: purchased Reaction Biology Corp
# T2 sequence (Q8IVH8 1-894): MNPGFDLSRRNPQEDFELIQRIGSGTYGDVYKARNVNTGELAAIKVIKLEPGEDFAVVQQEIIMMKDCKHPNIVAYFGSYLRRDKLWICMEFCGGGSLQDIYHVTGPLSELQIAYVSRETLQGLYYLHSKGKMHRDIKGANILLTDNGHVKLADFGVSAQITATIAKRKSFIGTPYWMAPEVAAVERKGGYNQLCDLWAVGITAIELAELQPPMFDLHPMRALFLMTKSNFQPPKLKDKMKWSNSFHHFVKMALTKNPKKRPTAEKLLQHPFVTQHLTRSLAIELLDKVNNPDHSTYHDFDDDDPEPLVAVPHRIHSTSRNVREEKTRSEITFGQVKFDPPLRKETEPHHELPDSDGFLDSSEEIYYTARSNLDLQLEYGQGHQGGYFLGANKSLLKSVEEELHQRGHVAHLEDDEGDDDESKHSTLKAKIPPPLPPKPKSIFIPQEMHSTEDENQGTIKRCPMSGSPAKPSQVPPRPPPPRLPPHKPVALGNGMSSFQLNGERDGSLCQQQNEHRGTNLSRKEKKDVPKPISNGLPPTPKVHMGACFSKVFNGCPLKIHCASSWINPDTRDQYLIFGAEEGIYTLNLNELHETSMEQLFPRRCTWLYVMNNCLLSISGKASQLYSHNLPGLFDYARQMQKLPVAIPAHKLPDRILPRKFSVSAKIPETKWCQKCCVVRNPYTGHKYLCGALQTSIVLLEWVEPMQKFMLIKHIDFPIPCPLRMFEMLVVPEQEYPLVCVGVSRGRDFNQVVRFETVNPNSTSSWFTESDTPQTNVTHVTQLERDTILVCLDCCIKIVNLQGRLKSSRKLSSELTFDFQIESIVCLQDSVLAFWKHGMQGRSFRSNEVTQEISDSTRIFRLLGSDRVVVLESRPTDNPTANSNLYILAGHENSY
# How it was run: as §1
# [3] = molecular target: T3, CAMK2b (Homo sapiens, UniProt Q13554)
# T3 construct: purchased Reaction Biology Corp
# How it was run: as §1
# [4] = molecular target: T4, PYK2 (Homo sapiens, UniProt Q14289)
# T4 construct: purchased Reaction Biology Corp
# How it was run: as §1
# [5] = molecular target: T5, PAK2 (Homo sapiens, UniProt Q13177)
# T5 construct: purchased Reaction Biology Corp
# How it was run: as §1
# [6] = molecular target: T6, CDC7/DBF4 (Homo sapiens, UniProt O00311)
# T6 construct: purchased Reaction Biology Corp
# How it was run: as §1
# [7] = read-out: % Enzyme Activity (relative to DMSO controls) Run 1
# [8] = read-out: % Enzyme Activity (relative to DMSO controls) Run 2
# T4 sequence (Q14289 whole entry): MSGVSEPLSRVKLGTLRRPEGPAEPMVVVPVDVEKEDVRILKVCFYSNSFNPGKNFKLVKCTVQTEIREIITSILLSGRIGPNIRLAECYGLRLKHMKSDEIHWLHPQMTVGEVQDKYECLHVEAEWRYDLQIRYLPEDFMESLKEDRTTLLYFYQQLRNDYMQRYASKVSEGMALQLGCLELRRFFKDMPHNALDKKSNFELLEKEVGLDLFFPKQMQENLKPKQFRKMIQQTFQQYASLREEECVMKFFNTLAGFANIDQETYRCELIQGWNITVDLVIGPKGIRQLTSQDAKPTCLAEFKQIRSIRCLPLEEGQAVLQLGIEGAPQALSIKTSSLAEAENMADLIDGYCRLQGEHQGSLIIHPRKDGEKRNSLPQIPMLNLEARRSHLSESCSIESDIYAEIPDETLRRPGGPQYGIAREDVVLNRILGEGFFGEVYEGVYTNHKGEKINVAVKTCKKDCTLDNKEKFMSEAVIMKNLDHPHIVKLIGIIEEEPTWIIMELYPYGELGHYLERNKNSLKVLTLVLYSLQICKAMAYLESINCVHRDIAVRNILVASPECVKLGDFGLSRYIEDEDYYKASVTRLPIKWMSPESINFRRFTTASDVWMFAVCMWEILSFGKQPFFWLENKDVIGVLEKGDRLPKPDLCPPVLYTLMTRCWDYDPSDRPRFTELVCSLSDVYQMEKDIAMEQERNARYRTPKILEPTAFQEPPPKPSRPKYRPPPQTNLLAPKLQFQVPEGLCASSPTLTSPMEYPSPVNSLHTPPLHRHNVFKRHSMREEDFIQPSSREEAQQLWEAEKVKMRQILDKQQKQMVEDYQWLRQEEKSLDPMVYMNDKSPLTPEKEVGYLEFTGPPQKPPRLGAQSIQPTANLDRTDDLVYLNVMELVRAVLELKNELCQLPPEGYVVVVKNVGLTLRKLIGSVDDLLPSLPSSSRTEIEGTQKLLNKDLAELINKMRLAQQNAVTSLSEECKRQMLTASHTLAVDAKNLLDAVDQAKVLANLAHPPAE
# T3 sequence (Q13554 whole entry): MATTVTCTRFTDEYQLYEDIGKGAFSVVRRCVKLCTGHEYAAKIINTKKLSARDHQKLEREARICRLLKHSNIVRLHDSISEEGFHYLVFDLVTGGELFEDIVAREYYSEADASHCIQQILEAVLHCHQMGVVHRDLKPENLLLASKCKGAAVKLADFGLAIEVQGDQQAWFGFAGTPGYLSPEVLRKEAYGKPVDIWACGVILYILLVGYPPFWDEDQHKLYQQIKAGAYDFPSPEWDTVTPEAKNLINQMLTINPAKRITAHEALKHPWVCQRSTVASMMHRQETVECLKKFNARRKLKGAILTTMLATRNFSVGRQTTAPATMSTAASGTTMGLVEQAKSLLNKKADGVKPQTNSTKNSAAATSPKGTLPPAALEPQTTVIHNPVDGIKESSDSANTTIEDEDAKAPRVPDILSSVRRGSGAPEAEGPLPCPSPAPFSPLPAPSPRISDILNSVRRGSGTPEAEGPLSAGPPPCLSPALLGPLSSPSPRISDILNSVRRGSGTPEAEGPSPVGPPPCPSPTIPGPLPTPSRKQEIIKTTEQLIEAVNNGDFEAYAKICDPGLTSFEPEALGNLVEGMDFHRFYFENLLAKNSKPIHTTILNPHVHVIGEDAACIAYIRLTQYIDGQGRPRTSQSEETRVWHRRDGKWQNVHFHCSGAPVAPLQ
# T6 sequence (O00311 whole entry): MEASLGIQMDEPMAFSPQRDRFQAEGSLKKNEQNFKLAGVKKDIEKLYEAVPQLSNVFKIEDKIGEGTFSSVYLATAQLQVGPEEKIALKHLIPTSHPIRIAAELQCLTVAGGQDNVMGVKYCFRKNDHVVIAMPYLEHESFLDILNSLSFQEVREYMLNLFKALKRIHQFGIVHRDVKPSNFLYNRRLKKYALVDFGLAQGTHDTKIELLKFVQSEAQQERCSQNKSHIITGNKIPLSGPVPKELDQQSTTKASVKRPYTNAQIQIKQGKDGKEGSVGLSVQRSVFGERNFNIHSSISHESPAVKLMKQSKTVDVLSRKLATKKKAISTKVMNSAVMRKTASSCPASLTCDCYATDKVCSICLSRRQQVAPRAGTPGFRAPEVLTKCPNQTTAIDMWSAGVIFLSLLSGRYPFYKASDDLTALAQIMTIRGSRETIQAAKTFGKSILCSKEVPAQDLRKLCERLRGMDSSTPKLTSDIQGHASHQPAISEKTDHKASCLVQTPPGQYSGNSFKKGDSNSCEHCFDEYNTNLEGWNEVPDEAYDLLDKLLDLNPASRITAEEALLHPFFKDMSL
# T6 sequence (Q9UBU7 whole entry partner): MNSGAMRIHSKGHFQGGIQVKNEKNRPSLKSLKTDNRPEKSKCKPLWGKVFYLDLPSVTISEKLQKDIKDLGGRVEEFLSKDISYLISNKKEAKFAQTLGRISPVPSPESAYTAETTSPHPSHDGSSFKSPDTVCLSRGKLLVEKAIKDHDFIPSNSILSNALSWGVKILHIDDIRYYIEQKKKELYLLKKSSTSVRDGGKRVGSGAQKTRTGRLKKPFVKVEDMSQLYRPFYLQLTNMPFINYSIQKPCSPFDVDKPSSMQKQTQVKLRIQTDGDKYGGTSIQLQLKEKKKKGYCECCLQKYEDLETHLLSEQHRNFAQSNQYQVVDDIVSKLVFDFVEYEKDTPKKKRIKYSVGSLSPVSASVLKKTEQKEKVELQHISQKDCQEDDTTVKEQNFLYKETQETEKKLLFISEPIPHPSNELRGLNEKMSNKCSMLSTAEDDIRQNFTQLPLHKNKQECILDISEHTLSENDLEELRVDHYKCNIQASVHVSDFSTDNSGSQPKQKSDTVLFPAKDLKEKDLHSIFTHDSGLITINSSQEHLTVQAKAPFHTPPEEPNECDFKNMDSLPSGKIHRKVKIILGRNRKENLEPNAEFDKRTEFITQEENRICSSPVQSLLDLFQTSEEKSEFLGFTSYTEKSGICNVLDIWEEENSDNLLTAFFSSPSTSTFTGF
# T5 sequence (Q13177 whole entry): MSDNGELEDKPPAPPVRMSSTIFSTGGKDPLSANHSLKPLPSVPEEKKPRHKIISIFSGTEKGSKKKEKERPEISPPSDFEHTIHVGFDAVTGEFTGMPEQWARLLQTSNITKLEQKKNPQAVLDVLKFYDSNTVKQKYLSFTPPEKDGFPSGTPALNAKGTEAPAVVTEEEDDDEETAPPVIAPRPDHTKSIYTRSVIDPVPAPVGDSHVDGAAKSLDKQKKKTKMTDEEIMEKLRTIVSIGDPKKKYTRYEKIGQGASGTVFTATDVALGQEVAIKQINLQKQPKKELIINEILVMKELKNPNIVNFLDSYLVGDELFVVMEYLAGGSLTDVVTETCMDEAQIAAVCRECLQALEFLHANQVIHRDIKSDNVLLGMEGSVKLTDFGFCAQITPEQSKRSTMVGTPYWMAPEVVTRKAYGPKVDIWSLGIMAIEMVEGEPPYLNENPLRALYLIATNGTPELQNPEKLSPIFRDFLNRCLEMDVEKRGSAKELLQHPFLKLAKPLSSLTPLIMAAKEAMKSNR
compound,measurement,setting,value
C=CC(=O)Nc1cccc(Nc2nc(Nc3ccc(OCCOC)c(F)c3)ncc2F)c1 [Compound 2],inhibition at 3 µM,[1],2.41%
same,remaining activity at 3 µM,[1]; [7],99.2%
same,remaining activity at 3 µM,[1]; [8],95.9%
same,inhibition at 3 µM,[2],-5.08%
same,remaining activity at 3 µM,[2]; [7],102%
same,remaining activity at 3 µM,[2]; [8],108%
same,inhibition at 3 µM,[3],3.89%
same,remaining activity at 3 µM,[3]; [7],96.4%
same,remaining activity at 3 µM,[3]; [8],95.8%
same,inhibition at 3 µM,[4],29.6%
same,remaining activity at 3 µM,[4]; [7],70.6%
same,remaining activity at 3 µM,[4]; [8],70.1%
same,inhibition at 3 µM,[5],4.8%
same,remaining activity at 3 µM,[5]; [7],95.5%
same,remaining activity at 3 µM,[5]; [8],94.9%
same,inhibition at 3 µM,[6],-2.02%
same,remaining activity at 3 µM,[6]; [7],100%
same,remaining activity at 3 µM,[6]; [8],104%
